Values quoted from earlier work as cited in patent US20220193028A1, “THERAPEUTIC COMBINATIONS, LIQUID PHARMACEUTICAL COMPOSITIONS, KITS FOR THEIR PREPARATION, AND METHODS OF THEIR USE” (priority 2019, published 2022).

Target: AMPA receptor
Settings: non-competitive selective allosteric modulator of the AMPA receptor; read-out: IC50 (block of glutamate induced currents)

Compound: N#Cc1ccccc1-c1cc(-c2ccccn2)cn(-c2ccccc2)c1=O [perampanel]
- IC50: ~560 nM
